Molecules are shown by their SMILES.

The subject of this assay is MDA-MB-231 triple negative breast cancer xenografts. Briefly: MDA-MB-231 orthotopic xenograft mouse model. In kind it is in vivo, mice. An excerpt:
FIG. 8: IODVA1 inhibits tumor growth of human breast and lung cancer xenografts. […] (B) Tumors were also stained for Ki67 as a proliferation marker (top panel). […] (C) Quantification of Ki67-positive and cleaved caspase 3-positive cells of tumors shown in (B). […] Animals began treatment when tumors became detectable at 10 days post-injection (*, p<0.05). […] IODVA1 treated tumors also had fewer proliferating cells compared to control vehicle treated animals, as determined by immunohistochemical staining for Ki67 (bottom) and increased intratumoral fibrosis. Representative images were taken at 100× magnification, scale bar is 200 μm. (F) Quantification of Ki67+ cells in control and IODVA1 treated tumors shown in (E).
To examine if the ability of IODVA1 to reduce oncogene-driven cell proliferation can be translated in vivo, applicants tested its efficacy on one breast cancer and one lung cancer xenograft mouse model. The breast cancer model utilizes the human triple negative breast cancer MDA-MB-231 cells. Cells were orthotopically injected into the right and left inguinal mammary glands of immunodeficient female mice. Tumor-bearing mice then received an intraperitoneal (IP) injection of 250 μL of […] IODVA1 every other day, for an average dose of 3.5 mg/kg. Dosage regimen was not optimized, and it is expected that better results are obtained if IODVA1 dosage is increased. […]
For xenograft studies, 1×10^6 MDA-MB-231 cells were suspended in PBS and injected into each inguinal mammary fat pad of nulliparous, 10-week old female athymic nude mice. Tumors were measured weekly with digital calipers and volume was calculated as [(π/6))×L×W^2] […] At necropsy, the mice were weighed and the tumors were excised, measured, weighed, fixed in 4% paraformaldehyde, and embedded in paraffin. Peripheral blood was collected by cardiac puncture and analyzed with a Hemavet (Drew Scientific, Miami Lakes, Fla., USA) for complete blood counts. […]

Turning to `OC1(c2ccccn2)N=C(Nc2nc3ccccc3[nH]2)N=C1c1ccccn1` (stereo not drawn) [IODVA1, (Z)-2-((1H-benzo[d]imidazol-2-yl)imino)-4,5-di(pyridin-2-yl)-2,5-dihydro-1H-imidazol-5-ol], where the note is “IP, average dose of 3.5 mg/kg, four weeks post treatment”, the “decrease of tumor volume compared to vehicle-treated control mice” value is recorded as at least 50%. For the setting “after four weeks treatment”, the “apoptosis, cleaved caspase-3 stained tumor sections” value is recorded as “significant increase” and the “cell proliferation, Ki-67 stained tumors” value was “did not reveal a statistical change”.

(Values after patent US11564913B2, “Compositions and methods for treating cancer” (Children's Hospital Medical Center, priority 2019, dated 2023).)
